Laboratory results reported in patent US7772241B2, “Variolin derivatives and their use as antitumor agents” (Pharma Mar S.A., priority 2001, dated 2010).
Read-outs that look alike come from different tables or passages of the source.

Experiments:
[1] = system: A-549; assay: Inhibition of cells growth by colorimetric (SRB) assay, A-549
How it was run: (§1)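 Read-out is sulforhodamine B protein stain (OD 490 nm) after cold TCA fixation, following 48 h continuous exposure to samples spanning 10 to 10^−8 μg/ml.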

[2] = system: DU-145; assay: Inhibition of cells growth by colorimetric (SRB) assay, DU-145; settings: for GI50: Homo sapiens, DU-145, 48 h, read-out: GI50 DU-145, SRB assay, 48 hours exposure; for TGI DU-145 / CC50: SRB assay, 48 hours exposure; for CC50: read-out: LC50 DU-145
How it was run: as §1

[3] = system: HMEC1; assay: Inhibition of cells growth by colorimetric (SRB) assay, HMEC1; settings: for TGI H-MEC-1: in M (unit assumed)
[4] = as above; settings: human, HMEC1 cells, LC50 H-MEC-1, SRB assay, 48 hours exposure
[5] = system: IGROV-ET; assay: Inhibition of cells growth by colorimetric (SRB) assay, IGROV-ET; settings: for CC50: Homo sapiens, 48 h, read-out: LC50 IGROV-ET, SRB assay, 48 hours exposure; for TGI IGROV-ET / GI50: SRB assay, 48 hours exposure; for GI50: read-out: GI50 IGROV-ET
How it was run: as §1

[6] = system: PANC-1; assay: Inhibition of cells growth by colorimetric (SRB) assay, PANC-1; settings: for GI50 / CC50: Homo sapiens, PANC-1, 48 h; for GI50: read-out: GI50 PANC-1, SRB assay, 48 hours exposure; for CC50: read-out: LC50 PANC-1, SRB assay, 48 hours exposure; for TGI PANC-1: SRB assay, 48 hours exposure
How it was run: as §1

[7] = system: SK-OV-3; assay: Inhibition of cells growth by colorimetric (SRB) assay, SK-OV-3; settings: for TGI SKOV-3 / GI50: SRB assay, 48 hours exposure; for GI50: read-out: GI50 SKOV-3
How it was run: as §1

[8] = system: HT-29; assay: Inhibition of cells growth by colorimetric (SRB) assay, HT-29; settings: for GI50: read-out: GI50 HT-29, SRB assay, 48 hours exposure; for TGI HT-29: SRB assay, 48 hours exposure
How it was run: as §1

[9] = system: SK-MEL-28; assay: Inhibition of cells growth by colorimetric (SRB) assay, SK-MEL-28; settings: for GI50 / CC50: Homo sapiens, SK-MEL-28, 48 h; for GI50: read-out: GI50 MEL-28, SRB assay, 48 hours exposure; for CC50: read-out: LC50 MEL-28, SRB assay, 48 hours exposure; for TGI MEL-28: SRB assay, 48 hours exposure
How it was run: as §1

[10] = system: K-562; assay: Inhibition of cells growth by colorimetric (SRB) assay, K-562; settings: SRB assay, 48 hours exposure; for GI50: read-out: GI50 K-562; for CC50: read-out: LC50 K-562
How it was run: as §1

[11] = system: LNCaP; assay: Inhibition of cells growth by colorimetric (SRB) assay, LNCaP; settings: SRB assay, 48 hours exposure; for GI50: read-out: GI50 LN-caP; for CC50: read-out: LC50 LN-caP
How it was run: as §1

[12] = system: LoVo; assay: Inhibition of cells growth by colorimetric (SRB) assay, LoVo; settings: for GI50 / CC50: Homo sapiens, LoVo, 48 h; for GI50: read-out: GI50 LOVO, SRB assay, 48 hours exposure; for CC50: read-out: LC50 LOVO, SRB assay, 48 hours exposure; for TGI LOVO: SRB assay, 48 hours exposure
How it was run: as §1

[13] = system: IGROV-1; assay: Inhibition of cells growth by colorimetric (SRB) assay, IGROV-1
How it was run: as §1

[14] = system: SK-BR-3; assay: Inhibition of cells growth by colorimetric (SRB) assay, SK-BR-3; settings: for GI50: read-out: GI50 SK-BR-3, SRB assay, 48 hours exposure
How it was run: as §1

[15] = system: LoVo-Dox; assay: Inhibition of cells growth by colorimetric (SRB) assay, LoVo-Dox; settings: for GI50 / CC50: Homo sapiens, 48 h; for GI50: read-out: GI50 LOVO-DOX, SRB assay, 48 hours exposure; for CC50: read-out: LC50 LOVO-DOX, SRB assay, 48 hours exposure; for TGI LOVO-DOX: SRB assay, 48 hours exposure
How it was run: as §1

With COc1nccc(-c2c3cccnc3n3c(N)nccc23)n1.Cl [Compound 81] the “TGI A-549” value ([1]; SRB assay, 48 hours exposure) was 3.04E−05, the GI50 ([1]; read-out: GI50 A-549, SRB assay, 48 hours exposure) was ≥ 30400 nM and the CC50 ([1]; read-out: LC50 A-549, SRB assay, 48 hours exposure) was ≥ 30400 nM. The GI50 [2] was 928 nM, the “TGI DU-145” value [2] was 2.40E−06 and the CC50 [2] was > 30400 nM. For the same compound, the “TGI H-MEC-1” value ([3]; SRB assay, 48 hours exposure) was 2.62E−07, the GI50 ([3]; read-out: GI50 H-MEC-1, SRB assay, 48 hours exposure) was 171 nM and the CC50 at 48 h [4] was 858 nM. For the same compound, the CC50 [5] was ≥ 30400 nM, the “TGI IGROV-ET” value [5] was 2.28E−07 and the GI50 [5] was 85.5 nM. The GI50 [6] was 1000 nM, the CC50 [6] was ≥ 30400 nM and the “TGI PANC-1” value [6] was 2.86E−06. For the same compound, the CC50 ([7]; Homo sapiens, SK-OV-3, 48 h, read-out: LC50 SKOV-3, SRB assay, 48 hours exposure) was 34500 nM, the “TGI SKOV-3” value [7] was 8.52E−06 and the GI50 [7] was 797 nM. The GI50 ([8]; Homo sapiens, HT-29, 48 h) was 1300 nM, the CC50 ([8]; Homo sapiens, HT-29, 48 h, read-out: LC50 HT-29, SRB assay, 48 hours exposure) was ≥ 30400 nM and the “TGI HT-29” value [8] was 3.04E−05. For the same compound, the GI50 [9] was 313 nM, the CC50 [9] was 1740 nM and the “TGI MEL-28” value [9] was 7.36E−07. For the same compound, the “TGI K-562” value [10] was 3.29E−07, the GI50 [10] was 79.1 nM and the CC50 [10] was 523 nM. For the same compound, the “TGI LN-caP” value [11] was 2.61E−07, the GI50 [11] was 158 nM and the CC50 [11] was 2770 nM. The GI50 [12] was 224 nM, the CC50 [12] was ≥ 30400 nM and the “TGI LOVO” value [12] was 1.77E−06. For the same compound, the “TGI IGROV” value ([13]; SRB assay, 48 hours exposure) was 2.70E−06, the GI50 ([13]; read-out: GI50 IGROV, SRB assay, 48 hours exposure) was 210 nM and the CC50 ([13]; read-out: LC50 IGROV, SRB assay, 48 hours exposure) was 20500 nM. The GI50 ([14]; Homo sapiens, SK-BR-3, 48 h) was 855 nM, the “TGI SK-BR-3” value ([14]; SRB assay, 48 hours exposure) was 2.26E−06 and the CC50 ([14]; read-out: LC50 SK-BR-3, SRB assay, 48 hours exposure) was 9490 nM. For the same compound, the GI50 [15] was 706 nM, the CC50 [15] was ≥ 30400 nM and the “TGI LOVO-DOX” value [15] was 3.04E−06.

With CCOc1nccc(-c2c3cccnc3n3c(N)nccc23)n1.Cl [Compound 82] the GI50 ([1]; Homo sapiens, A549, 48 h, read-out: GI50 A-549, SRB assay, 48 hours exposure) was 29200 nM, the CC50 ([1]; Homo sapiens, A549, 48 h, read-out: LC50 A-549, SRB assay, 48 hours exposure) was 29200 nM and the “TGI A-549” value ([1]; SRB assay, 48 hours exposure) was 2.92E−05. For the same compound, the GI50 [2] was 715 nM, the “TGI DU-145” value [2] was 1.51E−06 and the CC50 [2] was 2920 nM. The GI50 ([3]; Homo sapiens, HMEC-1, 48 h, read-out: GI50 H-MEC-1, SRB assay, 48 hours exposure) was 341 nM, the “TGI H-MEC-1” value ([3]; SRB assay, 48 hours exposure) was 7.29E−07 and the CC50 at 48 h [4] was 1550 nM. The CC50 [5] was 29200 nM, the “TGI IGROV-ET” value [5] was 2.32E−07 and the GI50 [5] was 89 nM. The GI50 [6] was 1030 nM, the CC50 [6] was 29200 nM and the “TGI PANC-1” value [6] was 6.77E−06. For the same compound, the “TGI SKOV-3” value [7] was 2.91E−06, the GI50 [7] was 992 nM and the GI50 ([8]; Homo sapiens, HT-29, 48 h) was 712 nM. The “TGI HT-29” value [8] was 2.92E−06, the GI50 [9] was 365 nM and the CC50 [9] was 1730 nM. The “TGI MEL-28” value [9] was 7.93E−07, the “TGI K-562” value [10] was 7.32E−07 and the GI50 [10] was 531 nM. The CC50 [10] was 1010 nM, the “TGI LN-caP” value [11] was 1.57E−06 and the GI50 [11] was 887 nM. For the same compound, the CC50 [11] was 2280 nM, the GI50 [12] was 665 nM and the CC50 [12] was 29200 nM. For the same compound, the “TGI LOVO” value [12] was 2.15E−06, the GI50 ([13]; Homo sapiens, IGROV-1, 48 h, read-out: GI50 IGROV, SRB assay, 48 hours exposure) was 971 nM and the CC50 ([13]; Homo sapiens, IGROV-1, 48 h, read-out: LC50 IGROV, SRB assay, 48 hours exposure) was 29200 nM. The “TGI IGROV” value ([13]; SRB assay, 48 hours exposure) was 1.76E−06, the GI50 ([14]; Homo sapiens, SK-BR-3, 48 h) was 560 nM and the CC50 ([14]; Homo sapiens, SK-BR-3, 48 h, read-out: LC50 SK-BR-3, SRB assay, 48 hours exposure) was 2260 nM. For the same compound, the “TGI SK-BR-3” value ([14]; SRB assay, 48 hours exposure) was 1.12E−06, the GI50 [15] was 700 nM and the CC50 [15] was 12100 nM. For the same compound, the “TGI LOVO-DOX” value [15] was 2.72E−06.
